The results in this text go back to patent US8188078B2 (Sanofi-Aventis, priority 2007, dated 2012).

One data set deals with RON (Homo sapiens, UniProt Q04912). Briefly: Test B: HTRF RON test in 96-well format. Type of data set: biochemical. On the procedure:
B) HTRF RON Test in 96-Well Format
The inhibitory potency (IC50) of molecules on the enzymatic activity of kinase phosphorylation RON is determined by the HTRF technique. The activity of the kinase is evaluated by measuring the phosphorylation of the substrate polyGAT by the enzyme, in the presence of ATP.
Final RON 5 nM is incubated in the presence of the molecule to be tested (for a final concentration range from 0.17 nM to 10 μM, final DMSO 3%) in buffer MOPS 10 mM pH 7, DTT 1 mM, Tween 20 0.01%. This pre-incubation is performed in 96 half-well black plates in a volume of 35 μl for 30 minutes at room temperature.
The reaction is initiated by adding 15 μl of a mixture of substrates constituted of biotinylated poly-(GAT) 1 μg/ml final and ATP 10 μM final in the presence of MgCl2 5 mM final for a final volume of 50 μl.
After incubation for 30 min at room temperature, the reaction is stopped with 30 μl of a mixture of Hepes 100 mM final pH 7, potassium fluoride 400 mM final, BSA 0.1% and EDTA 133 mM in the presence of 80 ng per well of antibodies Streptavidin ITS-XL665 Cis-Bio Int. and 18 ng per well of anti-phosphotyrosine PT66 labelled with europium cryptate.
After incubation for 2 hours at room temperature, reading is carried out at 2 wavelengths 620 nm and 665 nm in a Genios TECAN reader for the TRACE/HTRF technique and the percentage inhibition is calculated according to the 665/620 ratios.

The subject of a further data set is MKN45 cells. Briefly: Test D: cellular proliferation by 14C-thymidine pulse, MKN45 cells. It counts as cell-based. The note with it: Homo sapiens, MKN-45, cellular proliferation by 14C-thymidine pulse; cell line not stated (HCT116 or MKN45). The method, boiled down:
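MKN45 cells (7500/well, RPMI + 10% foetal calf serum) treated with 10 concentrations, 10000 to 0.3 nM in 3-fold steps, duplicate. 14C-thymidine (0.1 μCi/well) added at 72 h; incorporation counted after 24 h pulse, 96 h total treatment.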

The next data set has as its target T1, c-MET (Homo sapiens, UniProt P08581).
T1 construct: The recombinant DNA His-Tev-MET (956-1390) in pFastBac(Invitrogen); His (N, cleaved yes); Tev (TEV protease site) (N, cleaved yes); made in house; host or cells: SF21 insect cells (baculovirus, pFastBac)
Briefly: Test A: HTRF Met test in 96-well format. Type of data set: biochemical. A digest of the protocol: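 Percent inhibition was calculated from the HTRF 665/620 ratio, using Eu-cryptate anti-phosphotyrosine PT66 plus streptavidin-XL added with EDTA and read after 2 h. The reaction ran 10 min at room temperature: 5 nM tag-cleaved MET (956–1390), 10 µM ATP, 1 µg/ml poly-GAT, and compound from 0.17 nM to 10 µM in 3% DMSO.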
(TR-FRET usually uses a lanthanide donor and a delayed reading to cut background.)

RON, sequence (Q04912 25-1400): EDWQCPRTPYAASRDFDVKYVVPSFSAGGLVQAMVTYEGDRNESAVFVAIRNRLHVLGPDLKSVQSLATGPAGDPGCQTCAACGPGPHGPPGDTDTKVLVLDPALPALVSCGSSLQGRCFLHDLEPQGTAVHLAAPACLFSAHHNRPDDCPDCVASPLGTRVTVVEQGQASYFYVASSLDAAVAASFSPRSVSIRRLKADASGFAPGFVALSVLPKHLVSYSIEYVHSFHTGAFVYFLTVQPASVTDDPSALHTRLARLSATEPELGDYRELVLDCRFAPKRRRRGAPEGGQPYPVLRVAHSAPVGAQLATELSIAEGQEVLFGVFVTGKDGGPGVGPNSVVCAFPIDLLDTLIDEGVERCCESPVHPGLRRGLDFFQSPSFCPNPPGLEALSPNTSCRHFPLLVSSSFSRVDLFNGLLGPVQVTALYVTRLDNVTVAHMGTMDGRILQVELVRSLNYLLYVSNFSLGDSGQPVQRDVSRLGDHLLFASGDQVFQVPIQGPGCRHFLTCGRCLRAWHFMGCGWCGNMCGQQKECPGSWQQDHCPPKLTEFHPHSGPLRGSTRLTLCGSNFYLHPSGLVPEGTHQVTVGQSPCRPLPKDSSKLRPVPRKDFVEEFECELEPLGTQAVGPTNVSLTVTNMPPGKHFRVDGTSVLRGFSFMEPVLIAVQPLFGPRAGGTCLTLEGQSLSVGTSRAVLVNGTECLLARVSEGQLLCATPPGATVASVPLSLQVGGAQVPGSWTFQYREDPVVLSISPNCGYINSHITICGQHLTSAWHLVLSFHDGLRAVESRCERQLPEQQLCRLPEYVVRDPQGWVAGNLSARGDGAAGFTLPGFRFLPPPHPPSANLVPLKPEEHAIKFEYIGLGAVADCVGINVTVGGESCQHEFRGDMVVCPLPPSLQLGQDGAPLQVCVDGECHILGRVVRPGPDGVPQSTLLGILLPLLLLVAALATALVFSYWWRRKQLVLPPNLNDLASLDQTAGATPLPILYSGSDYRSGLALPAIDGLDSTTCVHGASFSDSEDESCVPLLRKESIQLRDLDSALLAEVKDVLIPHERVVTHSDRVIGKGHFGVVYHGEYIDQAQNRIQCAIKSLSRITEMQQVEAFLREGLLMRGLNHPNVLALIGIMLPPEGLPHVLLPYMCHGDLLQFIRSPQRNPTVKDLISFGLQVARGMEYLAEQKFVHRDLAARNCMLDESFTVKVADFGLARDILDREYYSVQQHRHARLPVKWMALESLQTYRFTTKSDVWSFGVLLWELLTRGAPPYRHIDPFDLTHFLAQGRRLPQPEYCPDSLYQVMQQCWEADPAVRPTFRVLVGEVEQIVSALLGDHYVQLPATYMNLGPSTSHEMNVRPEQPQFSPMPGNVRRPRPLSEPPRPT
T1 sequence (P08581 956-1390): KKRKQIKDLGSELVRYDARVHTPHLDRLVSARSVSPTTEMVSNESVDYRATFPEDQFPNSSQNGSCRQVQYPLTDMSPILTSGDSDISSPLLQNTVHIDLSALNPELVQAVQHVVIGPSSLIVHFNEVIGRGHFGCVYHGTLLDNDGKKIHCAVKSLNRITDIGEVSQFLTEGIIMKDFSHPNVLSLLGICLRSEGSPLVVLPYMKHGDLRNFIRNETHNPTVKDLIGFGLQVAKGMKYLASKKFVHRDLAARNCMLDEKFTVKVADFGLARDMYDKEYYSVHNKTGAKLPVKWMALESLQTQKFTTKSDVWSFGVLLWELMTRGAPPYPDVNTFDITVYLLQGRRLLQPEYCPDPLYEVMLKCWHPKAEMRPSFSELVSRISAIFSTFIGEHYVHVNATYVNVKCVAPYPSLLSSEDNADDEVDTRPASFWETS

By IC50 is commonly meant the concentration that inhibits the measured activity by half. Usually melting point stands for the temperature, or range, at which the solid turns liquid. `O=C(NCCCN1CCOCC1)Nc1nc2ccc(OCc3c(Cl)cccc3Cl)cc2s1` [Example 11, 1-{6-[(2,6-dichlorobenzyl)oxy]-1,3-benzothiazol-2-yl}-3-(3-morpholin-4-ylpropyl)urea] had a melting point of 162 to 166 °C. On RON, this compound gave a 50% inhibitory concentration (IC50) of 0.5 to 10 µM. The compound further yielded a half-maximal inhibitory concentration (IC50) in the data set on MKN45 cells of more than 10 µM. This compound also yielded an IC50 at c-MET of less than 100 nM.
